Values quoted from earlier work in patent US20190021988A1, “ENHANCED TRANSDERMAL DELIVERY OF ACTIVE AGENTS” (priority 2016, published 2019).

Tested on: desmosome-induced tight junctions between corneocytes

TD-1: skin penetrating peptide with the amino acid sequence ACSSSPSKHCG, disclosed in WO2007/035474
time until cell gaps are restored after treatment (after treatment): 1 h
space between cells after topical application (change from about 30 nm, in 30 minutes from topical application): about 466 nm
